pIC50, pKi: −log10 of the molar value. Blank lines part the entries; values can stand above or below the molecule they belong to.
Legend:
[1] = in vitro; details: human, liver microsomes
Description: Apparent total intrinsic clearance in human liver microsomes

[2] = physchem; details: octanol/water, pH 7.4
[3] = system: MDR1; experiment: in vitro; details: dog, MDCK-MDR1, pH 7.4
Description: Efflux ratio of permeability from basolateral to apical side to apical to basolateral side of MDCK cells expressing MDR1 at pH 7.4

[4] = target: ALK tyrosine kinase receptor (Homo sapiens, UniProt Q9UM73)
[5] = target: ALK tyrosine kinase receptor (Homo sapiens, UniProt Q9UM73, L1196M)
[6] = target: BDNF/NT-3 growth factors receptor (Homo sapiens, UniProt Q16620)
Description: Inhibition of TRKB (unknown origin) by off-chip mobility shift assay

[7] = Fraction unbound in rat brain at 2.4 uM; assay type: ADME, tissue-based
[8] = AUC in rat brain at 10 mg/kg, po; assay type: ADME, organism-based; parameters: dose 10 mg/kg, route oral
[9] = target: NT-3 growth factor receptor (Homo sapiens, UniProt Q16288)
Description: Inhibition of NRTK3 (unknown origin) by TR-FRET-based Z'-LYTE assay

[10] = AUC (infinity) in rat at 1 mg/kg, iv qd; assay type: ADME, organism-based; parameters: time infinity, dose 1 mg/kg, route intravenous; details: plasma
[11] = system: Rattus norvegicus; experiment: fCmax in rat at 10 mg/kg, po qd; assay type: ADME, organism-based; parameters: dose 10 mg/kg, route oral; details: in vivo
[12] = system: Plasma; experiment: fAUC in rat plasma at 10 mg/kg, po; assay type: ADME, organism-based; parameters: dose 10 mg/kg, route oral; details: in vivo
[13] = target: Tyrosine-protein kinase Fes/Fps (Homo sapiens, UniProt P07332); experiment: Inhibition of FES (unknown origin) by TR-FRET-based Z'-LYTE assay
[14] = AUC (0 to 24 hrs) in rat at 10 mg/kg, po qd; assay type: ADME, organism-based; parameters: time < 24 hr, dose 10 mg/kg, route oral; details: plasma
[15] = target: Activated CDC42 kinase 1 (Homo sapiens, UniProt Q07912)
Description: Inhibition of TNK2 (unknown origin) by TR-FRET-based Z'-LYTE assay

[16] = target: Tyrosine-protein kinase FRK (Homo sapiens, UniProt P42685); experiment: Inhibition of FRK (unknown origin) by TR-FRET-based Z'-LYTE assay
[17] = Oral bioavailability in rat at 10 mg/kg qd; assay type: ADME, organism-based; details: in vivo
[18] = target: Protein-tyrosine kinase 2-beta (Homo sapiens, UniProt Q14289)
Description: Inhibition of PTK2B (unknown origin) by TR-FRET-based Z'-LYTE assay

[19] = target: Leukocyte tyrosine kinase receptor (Homo sapiens, UniProt P29376); experiment: Inhibition of LTK (unknown origin) by TR-FRET-based Z'-LYTE assay
[20] = fAUC in rat CSF at 10 mg/kg, po; assay type: ADME, organism-based, Cerebrospinal fluid; parameters: dose 10 mg/kg, route oral; details: in vivo
[21] = Tmax in rat at 10 mg/kg, po qd; assay type: ADME, organism-based; parameters: dose 10 mg/kg, route oral; details: in vivo
[22] = target: High affinity nerve growth factor receptor (Homo sapiens, UniProt P04629); experiment: Inhibition of […] (unknown origin) by TR-FRET-based Z'-LYTE assay
[23] = AUC in rat CSF at 10 mg/kg, po; assay type: ADME, organism-based, Plasma; parameters: dose 10 mg/kg, route oral
[24] = target: Focal adhesion kinase 1 (Homo sapiens, UniProt Q05397)
Description: Inhibition of PTK2 (unknown origin) by TR-FRET-based Z'-LYTE assay

[25] = Cmax in rat at 10 mg/kg, po qd; assay type: ADME, organism-based; parameters: dose 10 mg/kg, route oral; details: in vivo
[26] = system: Brain; experiment: fAUC in rat brain at 10 mg/kg, po; assay type: ADME, organism-based; parameters: dose 10 mg/kg, route oral; details: in vivo
[27] = Half life in rat at 1 mg/kg, iv qd; assay type: ADME, organism-based; parameters: dose 1 mg/kg, route intravenous; details: in vivo
[28] = Fraction unbound in rat plasma at 2.4 uM; assay type: ADME, cell-free
[29] = Volume of distribution at steady state in rat at 1 mg/kg, iv qd; assay type: ADME, organism-based; parameters: dose 1 mg/kg, route intravenous; details: in vivo, read-out: Vdss
[30] = system: Plasma; experiment: Average plasma concentration in rat at 10 mg/kg, po qd; assay type: ADME, organism-based; parameters: dose 10 mg/kg, route oral; details: in vivo
[31] = AUC in rat plasma at 10 mg/kg, po; assay type: ADME, organism-based; parameters: dose 10 mg/kg, route oral
[32] = Plasma clearance in rat at 1 mg/kg, iv qd; assay type: ADME, organism-based; parameters: dose 1 mg/kg, route intravenous
[33] = target: Tyrosine-protein kinase Fer (Homo sapiens, UniProt P16591); experiment: Inhibition of FER (unknown origin) by TR-FRET-based Z'-LYTE assay
Chain of Tyrosine-protein kinase Fer (P16591 whole entry): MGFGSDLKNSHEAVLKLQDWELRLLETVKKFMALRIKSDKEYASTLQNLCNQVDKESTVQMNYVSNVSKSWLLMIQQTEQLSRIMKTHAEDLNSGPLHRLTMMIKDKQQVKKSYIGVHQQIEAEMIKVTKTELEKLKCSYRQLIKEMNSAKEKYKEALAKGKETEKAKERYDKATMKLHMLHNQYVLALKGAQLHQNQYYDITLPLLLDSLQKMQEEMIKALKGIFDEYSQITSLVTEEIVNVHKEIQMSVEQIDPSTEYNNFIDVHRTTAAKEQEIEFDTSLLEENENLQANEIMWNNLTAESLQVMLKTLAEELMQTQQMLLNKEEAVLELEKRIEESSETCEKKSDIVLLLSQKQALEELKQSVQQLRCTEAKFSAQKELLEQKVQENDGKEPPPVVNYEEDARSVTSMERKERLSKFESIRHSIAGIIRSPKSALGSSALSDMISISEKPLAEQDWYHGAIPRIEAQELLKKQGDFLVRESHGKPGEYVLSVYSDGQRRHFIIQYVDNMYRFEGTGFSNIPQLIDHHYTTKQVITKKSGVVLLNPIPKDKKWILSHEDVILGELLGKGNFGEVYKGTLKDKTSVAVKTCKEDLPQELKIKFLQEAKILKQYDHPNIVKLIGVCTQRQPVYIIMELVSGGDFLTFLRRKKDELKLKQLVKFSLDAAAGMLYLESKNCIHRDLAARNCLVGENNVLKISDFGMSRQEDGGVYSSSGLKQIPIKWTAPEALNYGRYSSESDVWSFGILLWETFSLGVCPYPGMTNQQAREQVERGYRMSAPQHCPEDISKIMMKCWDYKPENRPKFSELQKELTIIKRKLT

Chain of BDNF/NT-3 growth factors receptor (Q16620 whole entry): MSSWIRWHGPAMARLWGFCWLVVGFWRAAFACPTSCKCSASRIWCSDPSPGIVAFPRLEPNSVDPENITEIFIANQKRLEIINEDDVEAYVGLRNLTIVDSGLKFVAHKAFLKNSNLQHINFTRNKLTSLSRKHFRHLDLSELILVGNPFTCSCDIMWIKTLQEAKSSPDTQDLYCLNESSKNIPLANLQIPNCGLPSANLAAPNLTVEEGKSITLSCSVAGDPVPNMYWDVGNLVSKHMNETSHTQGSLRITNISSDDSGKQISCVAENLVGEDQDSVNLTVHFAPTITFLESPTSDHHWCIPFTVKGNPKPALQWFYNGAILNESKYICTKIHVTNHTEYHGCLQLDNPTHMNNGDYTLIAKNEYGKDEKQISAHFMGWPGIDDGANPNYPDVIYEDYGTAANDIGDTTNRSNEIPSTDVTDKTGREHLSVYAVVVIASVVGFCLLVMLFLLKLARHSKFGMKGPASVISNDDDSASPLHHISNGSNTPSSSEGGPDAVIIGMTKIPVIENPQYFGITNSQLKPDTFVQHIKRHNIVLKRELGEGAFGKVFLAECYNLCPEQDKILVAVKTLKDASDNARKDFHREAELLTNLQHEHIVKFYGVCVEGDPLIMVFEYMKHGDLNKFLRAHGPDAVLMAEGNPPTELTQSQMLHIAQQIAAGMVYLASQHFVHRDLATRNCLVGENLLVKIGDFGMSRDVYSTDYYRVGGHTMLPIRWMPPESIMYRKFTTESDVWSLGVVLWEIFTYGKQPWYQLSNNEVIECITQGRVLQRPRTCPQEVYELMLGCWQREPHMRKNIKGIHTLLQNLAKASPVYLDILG
Chain of Activated CDC42 kinase 1 (Q07912 whole entry): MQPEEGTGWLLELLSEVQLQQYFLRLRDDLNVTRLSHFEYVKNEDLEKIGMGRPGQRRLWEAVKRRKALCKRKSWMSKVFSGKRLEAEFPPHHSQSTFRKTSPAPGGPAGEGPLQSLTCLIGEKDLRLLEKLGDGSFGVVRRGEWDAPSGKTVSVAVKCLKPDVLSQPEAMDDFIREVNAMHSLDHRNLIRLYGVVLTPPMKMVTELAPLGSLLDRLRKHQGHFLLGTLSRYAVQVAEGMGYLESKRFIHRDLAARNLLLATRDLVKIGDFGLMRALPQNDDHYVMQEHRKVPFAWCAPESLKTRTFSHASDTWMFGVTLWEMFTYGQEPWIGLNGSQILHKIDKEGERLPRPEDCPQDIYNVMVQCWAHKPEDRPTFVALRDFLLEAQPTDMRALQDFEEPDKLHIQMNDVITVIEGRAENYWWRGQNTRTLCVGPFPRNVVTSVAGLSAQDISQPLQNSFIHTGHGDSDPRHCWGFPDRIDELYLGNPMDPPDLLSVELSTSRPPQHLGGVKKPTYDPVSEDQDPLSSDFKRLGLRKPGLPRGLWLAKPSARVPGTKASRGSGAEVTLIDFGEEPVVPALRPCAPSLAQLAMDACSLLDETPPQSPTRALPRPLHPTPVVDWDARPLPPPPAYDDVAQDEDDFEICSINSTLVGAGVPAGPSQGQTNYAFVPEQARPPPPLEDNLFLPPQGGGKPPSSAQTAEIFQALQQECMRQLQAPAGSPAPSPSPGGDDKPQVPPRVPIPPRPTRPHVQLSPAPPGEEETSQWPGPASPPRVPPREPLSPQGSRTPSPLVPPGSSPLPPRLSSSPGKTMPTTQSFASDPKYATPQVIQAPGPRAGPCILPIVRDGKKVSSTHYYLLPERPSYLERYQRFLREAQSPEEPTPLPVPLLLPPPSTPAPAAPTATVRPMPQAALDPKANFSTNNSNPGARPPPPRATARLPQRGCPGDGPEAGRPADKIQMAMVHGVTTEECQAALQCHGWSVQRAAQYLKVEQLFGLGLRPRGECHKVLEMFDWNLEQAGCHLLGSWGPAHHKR
Chain of Tyrosine-protein kinase FRK (P42685 whole entry): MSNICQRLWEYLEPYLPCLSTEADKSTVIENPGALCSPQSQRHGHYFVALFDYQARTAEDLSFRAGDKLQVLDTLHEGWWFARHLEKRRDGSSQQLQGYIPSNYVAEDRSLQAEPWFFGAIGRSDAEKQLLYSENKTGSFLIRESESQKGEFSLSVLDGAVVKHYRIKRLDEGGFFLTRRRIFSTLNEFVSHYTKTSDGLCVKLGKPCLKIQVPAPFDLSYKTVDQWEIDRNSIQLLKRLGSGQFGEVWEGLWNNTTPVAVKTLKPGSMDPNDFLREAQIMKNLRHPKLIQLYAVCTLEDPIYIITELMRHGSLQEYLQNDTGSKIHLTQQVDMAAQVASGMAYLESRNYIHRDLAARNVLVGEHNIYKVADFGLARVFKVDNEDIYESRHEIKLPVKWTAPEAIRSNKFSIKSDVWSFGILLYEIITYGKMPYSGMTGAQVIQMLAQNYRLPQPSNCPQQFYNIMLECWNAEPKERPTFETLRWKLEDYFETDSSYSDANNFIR
Chain of Leukocyte tyrosine kinase receptor (P29376 whole entry): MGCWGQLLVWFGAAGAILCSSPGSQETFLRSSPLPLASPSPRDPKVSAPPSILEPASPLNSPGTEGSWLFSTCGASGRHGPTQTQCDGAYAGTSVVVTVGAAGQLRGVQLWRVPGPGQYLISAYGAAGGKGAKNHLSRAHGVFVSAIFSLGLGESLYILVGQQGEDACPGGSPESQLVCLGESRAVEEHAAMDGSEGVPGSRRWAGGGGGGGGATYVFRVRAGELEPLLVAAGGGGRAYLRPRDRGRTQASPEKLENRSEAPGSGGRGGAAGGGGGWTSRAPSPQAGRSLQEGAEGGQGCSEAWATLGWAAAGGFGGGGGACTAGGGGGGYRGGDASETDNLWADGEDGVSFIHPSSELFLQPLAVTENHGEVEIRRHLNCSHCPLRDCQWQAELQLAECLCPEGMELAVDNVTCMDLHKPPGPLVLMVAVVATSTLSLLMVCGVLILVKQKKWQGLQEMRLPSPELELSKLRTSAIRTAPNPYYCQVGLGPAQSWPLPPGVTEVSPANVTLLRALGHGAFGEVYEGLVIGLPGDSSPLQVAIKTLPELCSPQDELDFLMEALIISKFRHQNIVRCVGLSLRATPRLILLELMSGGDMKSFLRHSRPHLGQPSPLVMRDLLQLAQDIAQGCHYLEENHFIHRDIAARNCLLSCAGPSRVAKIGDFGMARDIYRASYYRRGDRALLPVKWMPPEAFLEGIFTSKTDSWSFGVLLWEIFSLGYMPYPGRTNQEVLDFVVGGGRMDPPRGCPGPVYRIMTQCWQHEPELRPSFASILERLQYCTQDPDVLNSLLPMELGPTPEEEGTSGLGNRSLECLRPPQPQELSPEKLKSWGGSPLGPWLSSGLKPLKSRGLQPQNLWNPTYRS
Chain of Tyrosine-protein kinase Fes/Fps (P07332 whole entry): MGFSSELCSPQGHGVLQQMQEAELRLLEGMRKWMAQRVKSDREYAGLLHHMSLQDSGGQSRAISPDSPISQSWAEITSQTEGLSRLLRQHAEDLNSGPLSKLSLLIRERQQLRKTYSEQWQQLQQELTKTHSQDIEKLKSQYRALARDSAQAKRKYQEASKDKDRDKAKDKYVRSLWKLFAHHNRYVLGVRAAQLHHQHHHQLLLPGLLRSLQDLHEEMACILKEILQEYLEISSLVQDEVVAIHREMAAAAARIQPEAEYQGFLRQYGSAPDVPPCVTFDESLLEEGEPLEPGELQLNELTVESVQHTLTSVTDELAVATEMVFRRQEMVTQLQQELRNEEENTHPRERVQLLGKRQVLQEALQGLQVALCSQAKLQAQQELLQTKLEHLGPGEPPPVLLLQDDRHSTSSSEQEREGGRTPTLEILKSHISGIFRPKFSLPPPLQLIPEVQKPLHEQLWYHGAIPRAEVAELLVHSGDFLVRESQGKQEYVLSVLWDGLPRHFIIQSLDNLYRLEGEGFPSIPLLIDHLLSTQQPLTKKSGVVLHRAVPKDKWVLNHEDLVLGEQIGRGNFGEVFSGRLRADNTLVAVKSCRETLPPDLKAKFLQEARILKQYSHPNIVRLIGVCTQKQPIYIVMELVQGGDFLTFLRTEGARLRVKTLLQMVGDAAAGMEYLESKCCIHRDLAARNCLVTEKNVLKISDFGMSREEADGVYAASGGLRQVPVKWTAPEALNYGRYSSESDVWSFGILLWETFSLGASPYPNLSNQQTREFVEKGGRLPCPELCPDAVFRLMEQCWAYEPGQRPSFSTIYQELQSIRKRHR

SMILES: Cc1nc([C@](C)(O)CO)sc1-c1cnc(N)c(O[C@H](C)c2cc(F)ccc2-n2nccn2)c1
- CLint scaled [1]: 13 mL/min/kg

SMILES: Cc1nn(C)cc1-c1cnc(N)c(O[C@H](C)c2cc(F)ccc2-n2nccn2)c1
- CLint scaled [1]: 66 mL/min/kg

SMILES: COc1ccc(F)cc1[C@@H](C)Oc1cc(-c2cnnn2C)cnc1N
- logD [2]: 2.4
- CLint scaled [1]: 25 mL/min/kg

SMILES: Cc1nn(C)cc1-c1cnc(N)c(O[C@H](C)c2cc(F)ccc2C(=O)N(C)C)c1
- logD [2]: 2.1
- efflux ratio [3]: 7.6
- pKi [4]: 7.66
- pKi [5]: 6.51
- CLint scaled [1]: 58 mL/min/kg

SMILES: COc1ncccc1-c1cnc(N)c(O[C@H](C)c2cc(F)ccc2-n2nccn2)n1
- logD [2]: 4
- CLint scaled [1]: 41 mL/min/kg

SMILES: CNC(=O)c1ccc(F)cc1[C@@H](C)Oc1nc(-c2cccnc2OC)cnc1N
- logD [2]: 3
- CLint scaled [1]: 76 mL/min/kg

SMILES: N#Cc1[nH]nc2c1-c1cnc(N)c(c1)OCc1cc(F)ccc1OCCC2
- logD [2]: 3.6

SMILES: Cn1ncc2c1-c1cnc(N)c(c1)OCc1cc(F)ccc1OCCC2
- logD [2]: 3.4

SMILES: Cc1nn(C)c2c1-c1cnc(N)c(c1)O[C@H](C)c1cc(F)ccc1C(=O)N(C)C2
- logD [2]: 2.2
- pKi [6]: 9.30
- CLint scaled [1]: 8.6 mL/min/kg

SMILES: Cc1nn(C)c2c1-c1cnc(N)c(c1)O[C@@H](C)c1cc(F)ccc1C(=O)N(C)C2
- logD [2]: 2.2
- CLint scaled [1]: 8 mL/min/kg

SMILES: Cc1nn(C)c2c1-c1cnc(N)c(c1)OCc1cc(F)ccc1C(=O)N(C)C2
- logD [2]: 2
- CLint scaled [1]: 8.4 mL/min/kg

SMILES: Cc1nn(C)c2c1-c1cnc(N)c(n1)O[C@@H](C)c1cc(F)ccc1C(=O)N(C)C2
- logD [2]: 2.5
- CLint scaled [1]: 9.7 mL/min/kg

SMILES: COc1nn(C)c2c1-c1cnc(N)c(n1)O[C@H](C)c1cc(F)ccc1C(=O)N(C)C2
- logD [2]: 2.7
- CLint scaled [1]: 23.5 mL/min/kg

SMILES: C[C@H]1Oc2nc(cnc2N)-c2cc(S(C)(=O)=O)ccc2CN(C)C(=O)c2ccc(F)cc21
- logD [2]: 2.2
- CLint scaled [1]: 8 mL/min/kg

SMILES: C[C@H]1Oc2cc(cnc2N)-c2c(C3CC3)nn(C)c2CN(C)C(=O)c2ccc(F)cc21
- logD [2]: 2.9
- pKi [6]: 9.40
- CLint scaled [1]: 14.6 mL/min/kg

SMILES: Cc1cnc2nc3c(n2c1)-c1cnc(N)c(c1)O[C@H](C)c1cc(F)ccc1C(=O)N(C)C3
- logD [2]: 1.7
- efflux ratio [3]: 20.2
- pKi [6]: 7.11
- CLint scaled [1]: < 8 mL/min/kg

Second part, the molecule after the results:

- CLint scaled [1]: 8 mL/min/kg
SMILES: C[C@@H](Oc1cc(-c2cnnn2C)cnc1N)c1cc(F)ccc1-n1nccn1

- logD [2]: 2.1
- CLint scaled [1]: 28 mL/min/kg
SMILES: CNC(=O)c1ccc(F)cc1[C@@H](C)Oc1cc(-c2cn(C)nc2C)cnc1N

- logD [2]: 3.4
- CLint scaled [1]: 10 mL/min/kg
SMILES: C[C@@H](Oc1cc(-c2cccc(S(C)(=O)=O)c2)cnc1N)c1cc(F)ccc1-n1nccn1

- logD [2]: 3
SMILES: N#Cc1[nH]nc2c1-c1cnc(N)c(c1)OCc1cc(F)ccc1OCC2

- logD [2]: 3.1
SMILES: Cn1ncc2c1-c1cnc(N)c(c1)OCc1cc(F)ccc1OCCCC2

- logD [2]: 3.3
SMILES: C[C@H]1Oc2cc(cnc2N)-c2c(nn(C)c2C#N)CCOc2ccc(F)cc21

- logD [2]: 3.8
SMILES: C[C@H]1Oc2cc(cnc2N)-c2c(nn(C)c2C#N)CCCOc2ccc(F)cc21

- logD [2]: 2.5
- CLint scaled [1]: 8 mL/min/kg
SMILES: Cc1nn(C)c2c1-c1cnc(N)c(n1)O[C@H](C)c1cc(F)ccc1C(=O)N(C)C2

- logD [2]: 2.4
- CLint scaled [1]: 8.3 mL/min/kg
SMILES: COc1nn(C)c2c1-c1cnc(N)c(c1)O[C@H](C)c1cc(F)ccc1C(=O)N(C)C2

- logD [2]: 1.8
- CLint scaled [1]: 9.1 mL/min/kg
SMILES: C[C@H]1Oc2cc(cnc2N)-c2cc(S(C)(=O)=O)ccc2CN(C)C(=O)c2ccc(F)cc21

- logD [2]: 2.4
- pKi [6]: 7.19
- CLint scaled [1]: < 8 mL/min/kg
SMILES: C[C@H]1Oc2nc(cnc2N)-c2c(nc3ccc(C#N)cn23)CN(C)C(=O)c2ccc(F)cc21

- fraction unbound at 2.4 µM [7]: 0.12
- AUC [8]: 19.6 µM·h
- pIC50 [9]: 7.34
- AUC(0-inf) [10]: 1150 ng·h/mL
- fCmax [11]: 1530 nM
- fAUC [12]: 11.052 µM·h
- pIC50 [13]: 8.22
- logD [2]: 2.3
- AUC at 24 h [14]: 14900 ng·h/mL
- pIC50 [15]: 7.77
- pIC50 [16]: 7.28
- bioavailability [17]: 100%
- pIC50 [18]: 7.85
- pIC50 [19]: 8.57
- fAUC [20]: 3.475 µM·h
- Tmax [21]: 1.3 h
- pIC50 [22]: 7.62
- AUC [23]: 3.48 µM·h
- pIC50 [24]: 7.77
- Cmax [25]: 1730 ng/mL
- fAUC [26]: 2.355 µM·h
- half-life [27]: 2.7 h
- fraction unbound at 2.4 µM [28]: 0.36
- Vd [29]: 2.7 L/kg
- Cave [30]: 551 nM
- AUC [31]: 30.7 µM·h
- CLint scaled [1]: < 8 mL/min/kg
- clearance [32]: 15.5 mL/min/kg
- pIC50 [33]: 8.48
SMILES: C[C@H]1Oc2cc(cnc2N)-c2c(nn(C)c2C#N)CN(C)C(=O)c2ccc(F)cc21 [LORLATINIB]
